From PMC8224038, “Anti-Leukemic Properties of Aplysinopsin Derivative EE-84 Alone and Combined to BH3 Mimetic A-1210477” (Marine Drugs, 2021)

Columns and labels:
zebrafish embryos = experiment: Zebrafish toxicity; conditions: 24 h exposure
Procedure: For toxicity assays, embryos were treated with 0.003% phenylthiourea (PTU) 14 h before the assay to remove pigmentation. Then, 2 h before the assay, the embryo’s shell was eliminated and then treated for up to 24 h with aplysinopsin compounds at indicated concentrations in 24-well plates. Viability and abnormal development were assessed after 24 h of treatment under light microscopy (Carl Zeiss Stereomicroscope DV4, Seoul, Korea). Pictures were taken by fixing embryos onto a glass slide with 3% methylcellulose (Sigma-Aldrich).

K562IR cells = experiment: Trypan blue exclusion test, viability; type: cell-based; conditions: Homo sapiens, 24 h
Procedure: (§1) Cell proliferation and viability were assessed by the trypan blue exclusion method (Lonza), and viable cells were counted using a hematocytometer (Marienfeld, Lauda-Königshofen, Germany). Differential toxicity was calculated by comparing the viability of RPMI 1788 cells to the viability of cancer cells (normal/cancer cells). The difference in viability was expressed in terms of fold change.

K562 cells = experiment: Annexin V APC/PI staining quantified by FACS; type: cell-based, human
Text: The percentage of apoptotic cells was quantified as the fraction of cells showing fragmented nuclei, as assessed by fluorescence microscopy (Nikon, Tokyo, Japan) after staining with Hoechst 33342 (Sigma-Aldrich) and propidium iodide (Sigma-Aldrich). In addition, apoptosis was confirmed by Annexin V APC (Biolegend, 640919)/propidium iodide (BD Biosciences, 556547) staining and fluorescence-activated cell sorter (FACS) analysis according to the manufacturer protocol (BD Biosciences, 556547).

PBMCs = experiment: Toxicity test in nonproliferating and proliferating PBMCs (trypan blue); type: cell-based, human; conditions: 24, 48, 72 h
Procedure: Peripheral blood mononuclear cells (PBMCs) were isolated by density gradient centrifugation using Ficoll-Hypaque (GE Healthcare, Roosendaal, The Netherlands) from freshly collected buffy coats as previously described, obtained from healthy adult human volunteers (Red Cross, Luxembourg City, Luxembourg) after ethical approval as well as written informed consent from each volunteer. After isolation, cells were incubated overnight at 2 × 10^6 cells/mL in RPMI 1640 (supplemented with 1% antibiotic–antimycotic and 10% FCS (BioWhittaker, Verviers, Belgium) at 37 °C and 5% CO2 in a humidified atmosphere. The day after, cell concentration was adjusted at 1 × 10^6 cells/mL using the same fresh complete medium and then treated as indicated.
as §1

[1] = K562, 24 h, EE-84 30 μM, with z-VAD-fmk (50 μM)

**Q.** Which results are given for `COc1ccc2c(c1)c(C(=O)C(=O)Nc1sc3c(c1C(C)=O)CC(C)CC3)cn2Cc1ccccc1` (stereo not drawn) [EE-84, N-(3-Acetyl-4,5,6,7-Tetrahydro-5-Methylbenzo[b]Thiophen-2-yl)-2-(1-Benzyl-5-Methoxy-1H-Indol-3-yl)-2-Oxoacetamide]?
**A.** heart rate of zebrafish (zebrafish embryos): moderate decrease; growth (relative body length) of zebrafish (zebrafish embryos; concentrations up to 100 µM): did not affect; survival rate of zebrafish (zebrafish embryos; concentrations up to 100 µM): did not affect; morphological changes of zebrafish (zebrafish embryos; embryos 24 hpf, different concentrations): No significant morphological changes; viability at 30 µM (K562IR cells; EE-84 30 µM): 95.3 ± 0.6%; viability at 50 µM (K562IR cells; EE-84 50 µM): 97 ± 2.7%; AnnV+/PI+ (%) (K562 cells; K562, 24 h, EE-84 30 μM): 2.98 ± 0.23%; AnnV+/PI− (%) (K562 cells; K562, 24 h, EE-84 30 μM): 6.00 ± 1.43%; Combined cell death (%) (K562 cells; K562, 24 h, EE-84 30 μM): 8.98 ± 2.14%; AnnV+/PI+ (%) (K562 cells; [1]): 3.13 ± 0.21%; AnnV+/PI− (%) (K562 cells; [1]): 5.33 ± 1.35%; Combined cell death (%) (K562 cells; [1]): 8.46 ± 1.55%; AnnV+/PI+ (%) (K562 cells; K562, EE-84 10 μM (Figure 3B)): 2.50 ± 0.62%; AnnV+/PI− (%) (K562 cells; K562, EE-84 10 μM (Figure 3B)): 7.05 ± 1.46%; Combined cell death (%) (K562 cells; K562, EE-84 10 μM (Figure 3B)): 9.55 ± 3.22%; AnnV+/PI+ (%) (K562 cells; K562, EE-84 20 μM (Figure 3B)): 4.40 ± 0.94%; AnnV+/PI− (%) (K562 cells; K562, EE-84 20 μM (Figure 3B)): 5.60 ± 1.98%; Combined cell death (%) (K562 cells; K562, EE-84 20 μM (Figure 3B)): 10.00 ± 0.85%; AnnV+/PI+ (%) (K562 cells; K562, EE-84 30 μM (Figure 3B)): 7.51 ± 2.70%; AnnV+/PI− (%) (K562 cells; K562, EE-84 30 μM (Figure 3B)): 6.65 ± 2.29%; Combined cell death (%) (K562 cells; K562, EE-84 30 μM (Figure 3B)): 14.16 ± 0.61%; AnnV+/PI+ (%) (K562 cells; K562, EE-84 40 μM (Figure 3B)): 8.97 ± 1.03%; AnnV+/PI− (%) (K562 cells; K562, EE-84 40 μM (Figure 3B)): 7.71 ± 2.10%; Combined cell death (%) (K562 cells; K562, EE-84 40 μM (Figure 3B)): 16.68 ± 0.89%; AnnV+/PI+ (%) (K562 cells; K562, EE-84 50 μM (Figure 3B)): 8.25 ± 1.95%; AnnV+/PI− (%) (K562 cells; K562, EE-84 50 μM (Figure 3B)): 8.22 ± 3.12%; toxic effects in nonproliferating and proliferating PBMCs (PBMCs): did not induce toxic effects
